Source: patent publication US20230192677A1, “CYP11A1 INHIBITORS” (ORION CORPORATION, priority 2020, published 2023)
pIC50: −log10 of the molar value.

What was measured:
[1] = biological target: T1, CYP11A1 (Homo sapiens, UniProt P05108); test: CYP11A1 inhibition, isocaproic acid release assay (IARA) in H295R cells; format: cell-based; conditions: human H295R adrenocortical carcinoma cell line, three days, 3 nM [24,25-3H]-labelled cholesterol; read-out: IC50 on CYP11A1 inhibition (Group)
T1 construct: human H295R adrenocortical carcinoma cell line was used as source of enzyme; endogenous in cells; host or cells: H295R human adrenocortical carcinoma cells
T1 sequence (P05108 40-521): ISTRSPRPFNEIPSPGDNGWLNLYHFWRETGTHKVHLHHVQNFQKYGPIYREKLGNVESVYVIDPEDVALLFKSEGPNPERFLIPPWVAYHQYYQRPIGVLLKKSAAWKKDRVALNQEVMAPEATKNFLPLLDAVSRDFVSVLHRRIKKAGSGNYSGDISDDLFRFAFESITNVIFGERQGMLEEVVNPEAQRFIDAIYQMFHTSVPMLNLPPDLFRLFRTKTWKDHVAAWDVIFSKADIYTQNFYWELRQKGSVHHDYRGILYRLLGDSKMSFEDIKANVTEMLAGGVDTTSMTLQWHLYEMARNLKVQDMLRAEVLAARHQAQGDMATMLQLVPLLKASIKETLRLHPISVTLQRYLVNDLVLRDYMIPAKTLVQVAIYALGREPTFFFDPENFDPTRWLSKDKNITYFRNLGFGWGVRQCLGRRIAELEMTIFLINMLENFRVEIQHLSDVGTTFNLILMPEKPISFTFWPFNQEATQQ
Method: The ability of the test compounds to inhibit conversion of cholesterol to pregnenolone and isocaproic acid was measured by modification of isocaproic acid release assay (IARA) described by Ruangwises et al. (Biology of Reproduction 1991; 45(1):143-50) except that human H295R adrenocortical carcinoma cell line was used as source of enzyme and extraction was done with dextran-coated charcoal suspension (Isomaa, V. et al., Endocrinology 1982; 111(3):833-843). […] To determine the half maximal inhibitory concentration (IC50) of the test compounds on CYP11A1 inhibition, the cells were treated for three days with increasing concentrations of the test compounds in the presence of 3 nM [24,25-3H]-labelled cholesterol (American Radiolabelled Chemicals). The final DMSO concentration was 1%. Cell culture medium was extracted with dextran-coated charcoal suspension and the radiolabelled isocaproic acid was determined by mixing 100 μl of supernatant fraction in 200 μl of scintillation fluid (OptiPhase SuperMix, Perkin Elmer). Radioactivity was measured using a Microbeta scintillation counter (1450 MicroBeta Trilux, Wallac). All the test compounds were studied at 10 concentrations in duplicates.

[2] = biological target: recombinant human cytochrome P450 (CYP) CYP3A4 enzyme (Homo sapiens, UniProt P08684); test: Formation of reactive metabolites, trapping with GSH, KCN and SCA; conditions: recombinant human CYP3A4, NADPH, 1 hour, pH 7.4
Sequence of recombinant human cytochrome P450 (CYP) CYP3A4 enzyme (P08684 whole entry): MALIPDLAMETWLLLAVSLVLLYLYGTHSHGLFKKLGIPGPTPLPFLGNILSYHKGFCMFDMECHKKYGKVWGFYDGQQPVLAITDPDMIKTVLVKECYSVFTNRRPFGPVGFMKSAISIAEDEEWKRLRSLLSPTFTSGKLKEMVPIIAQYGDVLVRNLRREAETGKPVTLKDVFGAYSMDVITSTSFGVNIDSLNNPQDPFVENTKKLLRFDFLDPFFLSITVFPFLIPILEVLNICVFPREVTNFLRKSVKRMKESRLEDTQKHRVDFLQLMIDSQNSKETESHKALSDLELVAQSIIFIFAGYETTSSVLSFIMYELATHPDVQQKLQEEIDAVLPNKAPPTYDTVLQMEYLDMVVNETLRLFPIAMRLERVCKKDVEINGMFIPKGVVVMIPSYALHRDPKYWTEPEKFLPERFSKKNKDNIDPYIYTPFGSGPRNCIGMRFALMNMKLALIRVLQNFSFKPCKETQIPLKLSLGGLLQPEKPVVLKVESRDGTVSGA

pIC50 [1] | Number of CN trapped metabolites ([2]; test compound 10 μM) | Number of GSH trapped metabolites ([2]; test compound 10 μM) | Number of SCA trapped metabolites ([2]; test compound 10 μM) | Compound | Number of CN trapped metabolites ([2]; test compound 1 μM) | Number of GSH trapped metabolites ([2]; test compound 1 μM) | Number of SCA trapped metabolites ([2]; test compound 1 μM)
6.70 to 7.00 | 0 | 0 | 2 (trace) | CS(=O)(=O)N1CCC(COc2coc(CN3Cc4ccc(-c5nnco5)cc4C3)cc2=O)CC1 [Compound 1, 2-((5-(1,3,4-Oxadiazol-2-yl)isoindolin-2-yl)methyl)-5-(((methylsulfonyl)piperidin-4-yl)methoxy)-4H-pyran-4-one] | – | – | –
6.70 to 7.00 | 0 | 0 | 1 (trace) | C/C(=N\O)c1ccc2c(c1)CN(Cc1cc(=O)c(OCC3CCN(S(C)(=O)=O)CC3)co1)C2 [Compound 90, (E)-2-((5-(1-(Hydroxyimino)ethyl)isoindolin-2-yl)methyl)-5-((1-(methylsulfonyl)piperidin-4-yl)methoxy)-4H-pyran-4-one] | – | – | –
5.70 to 6.70 | 0 | 0 | 3 (trace) | CC(O)c1ccc2c(c1)CN(Cc1cc(=O)c(OCC3CCN(S(C)(=O)=O)CC3)co1)C2 (stereo not drawn) [Compound 93, 2-((5-(1-Hydroxyethyl)isoindolin-2-yl)methyl)-5-((1-(methylsulfonyl)piperidin-4-yl)methoxy)-4H-pyran-4-one] | – | – | –
> 7.00 | 0 | 0 | 1 (trace) | CC(=O)c1ccc2c(c1)CN(Cc1cc(=O)c(OCC3CCN(S(C)(=O)=O)CC3)co1)C2 [Compound 89, 2-((5-Acetylisoindolin-2-yl)methyl)-5-((1-(methylsulfonyl)piperidin-4-yl)-methoxy)-4H-pyran-4-one] | – | – | –
6.70 to 7.00 | 0 | 1 (trace) | – | CS(=O)(=O)N1CCC(COc2coc(CN3Cc4ccc(-c5ncon5)cc4C3)cc2=O)CC1 [Compound 8, 2-((5-(1,2,4-Oxadiazol-3-yl)isoindolin-2-yl)methyl)-5-((1-(methylsulfonyl)-piperidin-4-yl)methoxy)-4H-pyran-4-one] | – | – | –
6.70 to 7.00 | 0 | 0 | 3 (trace) | CS(=O)(=O)N1CCC(COc2coc(CN3Cc4ccc(-c5cnco5)cc4C3)cc2=O)CC1 [Compound 2, 5-((1-(Methylsulfonyl)piperidin-4-yl)methoxy)-2-((5-(oxazol-5-yl)isoindolin-2-yl)methyl)-4H-pyran-4-one] | – | – | –

Compound | pIC50 [1] | Number of CN trapped metabolites ([2]; test compound 10 μM) | Number of GSH trapped metabolites ([2]; test compound 10 μM) | Number of SCA trapped metabolites ([2]; test compound 10 μM) | Number of CN trapped metabolites ([2]; test compound 1 μM) | Number of GSH trapped metabolites ([2]; test compound 1 μM) | Number of SCA trapped metabolites ([2]; test compound 1 μM)
CC(C)(C)OC(=O)N1CC2(CC(COc3coc(CN4CCc5ccccc5C4)cc3=O)C2)C1 [Compound 30, tert-Butyl 6-(((6-((3,4-dihydroisoquinolin-2(1H)-yl)methyl)-4-oxo-4H-pyran-3-yl)oxy)methyl)-2-azaspiro[3.3]heptane-2-carboxylate] | 5.70 to 6.70 | – | – | – | 0 | 0 | 0
